Paper PMC6479349, “Derivatives of 3-Aminopyrazine-2-carboxamides: Synthesis, Antimicrobial Evaluation, and in Vitro Cytotoxicity” (Molecules, 2019)
Values after ≈ are worked out from the molar mass of the structure shown.

Experiments:
[1] = tested on: Candida albicans CCM 8320; test: Antifungal microdilution broth MIC; conditions: CCM8320, 48 h, read-out: MIC Candida albicans (standards)
C. krusei CCM 8271 = test: Antifungal microdilution broth MIC; conditions: Pichia kudriavzevii, CCM8271, 48 h, read-out: MIC C. krusei (standards)
C. parapsilosis CCM 8260 = test: Antifungal microdilution broth MIC; conditions: Lodderomyces parapsilosis, CCM8260, 48 h, read-out: MIC C. parapsilosis (standards)
C. tropicalis CCM 8264 = test: Antifungal microdilution broth MIC; conditions: Candida tropicalis, CCM8264, 48 h, read-out: MIC C. tropicalis (standards)
[2] = tested on: Aspergillus flavus CCM 8363; test: Antifungal microdilution broth MIC; conditions: CCM8363, 48 h, read-out: MIC Aspergillus flavus (standards)
[3] = tested on: Lichtheimia corymbifera CCM 8077; test: Antifungal microdilution broth MIC; conditions: CCM8077, 48 h, read-out: MIC Lichtheimia corymbifera (standards)
[4] = tested on: Trichophyton interdigitale CCM 8377; test: Antifungal microdilution broth MIC; conditions: Trichophyton interdigitale, CCM8377, 72 h, read-out: MIC Trichophyton interdigitale (standards)
[5] = tested on: Aspergillus fumigatus ATCC 204305; test: Antifungal microdilution broth MIC; conditions: ATCC204305, 48 h, read-out: MIC Aspergillus fumigatus (standards)
[6] = tested on: Mycobacterium tuberculosis H37Rv; test: Antimycobacterial microdilution broth MIC (Alamar Blue); assay type: cell-based
[7] = tested on: Mycobacterium smegmatis DSM 43465; test: Antimycobacterial microdilution broth panel MIC (resazurin); assay type: cell-based; conditions: for MIC: Mycolicibacterium smegmatis
[8] = Lipophilicity by reverse phase HPLC (log k); conditions: RP-HPLC C18, MeOH 70% / H2O 30%, 30 °C
Description: The mobile phase consisted of MeOH (HPLC grade, 70%) and H2O (HPLC-Milli-Q Grade, 30%). The flow rate was 1.0 mL/min, samples were injected in a volume of 20 µL, and the column temperature was 30 °C. Detection and monitoring wavelength were 210 nm and 270 nm, respectively. Retention times (Rt) were measured in minutes. The dead time of the system (Dt) was determined as the retention time of the KI methanolic solution. Capacity factors k for individual compounds were calculated according to the formula k = (Rt – Dt)/Dt. Capacity factor k was converted to log scale and (log k) and used as a measure of lipophilicity.

[9] = Solubility in the cytotoxicity testing medium; conditions: cytotoxicity assay medium; highest tested concentration 50 µM
[10] = In vitro cytotoxicity, CellTiter 96 Aqueous One; conditions: human
HepG2 cell line = test: In vitro cytotoxicity, CellTiter 96 Aqueous One
[11] = tested on: Pseudomonas aeruginosa CCM 3955; set-up: method as in PMID 26084645; conditions: previously published positional isomer; cited from earlier work
[12] = tested on: Ataxia Telangiectasia and Rad3 Related (ATR) protein kinase; set-up: method as in doi:10.1007/s00044-013-0665-6; conditions: cited from earlier work
[13] = tested on: M. kansasii CNCTC My 235/80; test: Antimycobacterial microdilution broth MIC (Alamar Blue); assay type: cell-based, Mycobacterium kansasii
[14] = tested on: M. avium ssp. avium CNCTC My 80/72; test: as above; assay type: cell-based, Mycobacterium avium
[15] = tested on: Mycobacterium aurum DSM 43999; test: Antimycobacterial microdilution broth panel MIC (resazurin); assay type: cell-based; conditions: Mycolicibacterium aurum, DSM43999
[16] = Mycobacterium tuberculosis, H37RV, M. tuberculosis H37Rv, value in parentheses
[17] = Mycobacterium tuberculosis, H37RV, pH 6.6, M. tuberculosis H37Rv, Middlebrook 7H9 pH 6.6

## C[C@@H](c1ncncc1F)[C@](O)(Cn1cncn1)c1ccc(F)cc1F [voriconazole]
[1]
  MIC: > 16 µg/mL
C. krusei CCM 8271
  MIC: 0.5 µg/mL (≈ 1.43 µM)
C. parapsilosis CCM 8260
  MIC: 8 µg/mL (≈ 22.9 µM)
C. tropicalis CCM 8264
  MIC: > 16 µg/mL
[2]
  MIC: > 16 µg/mL
[3]
  MIC: > 16 µg/mL
[4]
  MIC: > 16 µg/mL
[5]
  MIC: 1 µg/mL (≈ 2.86 µM)

## COc1ccc(NC(=O)c2nccnc2N)c(OC)c1 [Compound 17, 3-Amino-N-(2,4-dimethoxyphenyl)pyrazine-2-carboxamide]
[6]; M. tuberculosis H37Rv, value in parentheses
  MIC: 45.6 µM
[6]; [16]
  MIC: 46 µM
[6]; [17]
  MIC: 12.5 µg/mL
[7]; DSM43465
  MIC: > 500 µg/mL
[7]; DSM43465, value in parentheses
  MIC: > 1820 µM
[8]
  log k: 0.37
[9]
  solubility in the testing medium: decreased solubility
[10]
  IC50 at 24 h: > 50 µM
HepG2 cell line
  cytotoxicity against HepG2: nontoxic

## Nc1cnc(C(=O)Nc2ccc(C(F)(F)F)cc2)cn1 [5-amino-N-(4-(trifluoromethyl)phenyl)pyrazine-2-carboxamide]
[11]
  MIC P. aeruginosa: 250 µM (≈ 70.6 µg/mL)

## Nc1nccnc1C(=O)Nc1ccccc1 [Compound 13, 3-Amino-N-phenylpyrazine-2-carboxamide]
[6]; [16]
  MIC: > 467 µM
[6]; [17]
  MIC: > 100 µg/mL
[7]; DSM43465
  MIC: > 500 µg/mL
[7]; DSM43465, value in parentheses
  MIC: > 2330 µM
[12]
  inhibitory effects on ATR protein kinase: inhibitory effects
[8]
  log k: 0.189

## NNC(=O)c1ccncc1 [INH, isoniazid, reference compound]
[6]; [17]
  MIC: 0.1 to 0.2 µg/mL
[13]
  MIC M. kansasii: 3.13 to 12.5 µg/mL
[14]
  MIC M. avium: 6.25 to 12.5 µg/mL
[7]
  MIC M. smegmatis: 7.81 to 15.62 µg/mL
[7]; DSM43465
  MIC: 7.81 to 15.6 µg/mL
[15]
  MIC: 1.95 to 3.91 µg/mL (≈ 14.2 to 28.5 µM)
